From patent US20120171213A1, “METHOD OF TREATING TUMORS” (Yissum Research Development Company of the Hebrew …, priority 2009, published 2012)

What was measured:
[1] = tested on: hES-cell teratoma-derived tumor cells (WA09, TE06); experiment: Annexin V / PI flow cytometry for apoptosis after Taxol and Purvalanol A treatment in vitro; format: cell-based, human; conditions: 0.2 µM Taxol 16 hours and/or 10 µM Purvalanol A 16 hours, sequential, versus DMSO, n=5
Procedure: FACS: Annexin V and PI staining for apoptosis detection was performed using the Annexin V-PE kit (Bender MedSystems) according to the manufacturer's instructions. FACS analysis was performed using FACSCaliber system (Becton Dickinson). Analysis was performed on […] software (Becton Dickinson). Forward and side scatter plots were used to exclude debris from the histogram analysis.
The medium was then replaced with a medium containing […] Purvalanol A (Sigma), and the cells were cultured for an additional 16 hours. Other wells were treated with either Taxol for 16 hours followed by DMSO (the solution vehicle) for 16 hours or DMSO for 16 hours followed by Purvalanol A for 16 hours. Control wells were treated twice with DMSO at the same time points. Mice bearing hES-cell teratomas for 30 d were injected intraperitoneally with 7 mg/kg Taxol and 24 hours later were injected with 60 mg/kg Purvalanol A. Reagents were injected in a solution of DMSO/PEG400 at 1:1 ratio. Control mice received vehicle injections at the same time points. Mice were euthanized 18 hours after the last injection. Fresh frozen […] teratoma sections were subjected to TUNEL using the ApoAlert DNA Fragmentation Assay Kit (Clontech) according to the manufacturer's instructions.

[2] = tested on: tumor cell; conditions: both in vitro and in vivo; cited from earlier work

Row | Structure (SMILES) | fold increase in apoptotic cells (Annexin V positive) [1] | tumor cell death by apoptosis [2]
1 | CC(C)[C@H](CO)Nc1nc(Nc2cccc(Cl)c2)c2ncn(C(C)C)c2n1 [Purvalanol A] | no significant effect | negligible results
2 | CC(=O)O[C@H]1C(=O)[C@@]2(C)[C@H]([C@H](OC(=O)c3ccccc3)[C@]3(O)C[C@H](OC(=O)[C@H](O)[C@@H](NC(=O)c4ccccc4)c4ccccc4)C(C)=C1C3(C)C)[C@]1(OC(C)=O)CO[C@@H]1C[C@@H]2O [Taxol] |  | negligible results
